Data: ChEMBL document CHEMBL1201862, “PubChem BioAssay data set” (2004)
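In this assay, cells in 96-well plates receive the compound at five concentrations for 48 hours. Endpoints are linearly interpolated between the surrounding concentrations. GI50: concentration for 50% inhibition of growth.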 Calls of active or inactive are those of the source. Cut-off read from the data, not from the text of the source: active = GI50 up to about 1.1 µM and inactive = higher.

What was measured:
Assay in all cases: NCI tumour cell line growth inhibition, 48 h
NCI-H226 = test system: NCI-H226
HCT-116 = test system: HCT-116
EKVX = test system: EKVX
SK-MEL-5 = test system: SK-MEL-5
RPMI-8226 = test system: RPMI-8226
Hs-578T = test system: Hs-578T
K562 = test system: K562
SK-MEL-28 = test system: SK-MEL-28
NCI-H460 = test system: NCI-H460
OVCAR-8 = test system: OVCAR-8
NCI-H522 = test system: NCI-H522
SR = test system: SR
CAKI-1 = test system: CAKI-1
SK-MEL-2 = test system: SK-MEL-2
UACC-257 = test system: UACC-257
SW-620 = test system: SW-620
TK-10 = test system: TK-10
IGROV-1 = test system: IGROV-1
KM12 = test system: KM12
HT-29 = test system: HT-29
NCI-H23 = test system: NCI-H23
M14 = test system: M14
OVCAR-4 = test system: OVCAR-4
PC-3 = test system: PC-3
OVCAR-5 = test system: OVCAR-5
MDA-MB-231 = test system: MDA-MB-231
UO-31 = test system: UO-31
UACC-62 = test system: UACC-62
786-0 = test system: 786-0
T47D = test system: T47D
BT-549 = test system: BT-549
SNB-75 = test system: SNB-75
A498 = test system: A498
HOP-92 = test system: HOP-92
A549 = test system: A549
HCT-15 = test system: HCT-15
U-251 = test system: U-251
OVCAR-3 = test system: OVCAR-3
MDA-N = test system: MDA-N
Malme-3M = test system: Malme-3M
NCI/ADR-RES = test system: NCI/ADR-RES
SF-295 = test system: SF-295
RXF 393 = test system: RXF 393
ACHN = test system: ACHN
MCF7 = test system: MCF7
COLO 205 = test system: COLO 205
HOP-62 = test system: HOP-62
MDA-MB-435 = test system: MDA-MB-435
SN12C = test system: SN12C
SF-539 = test system: SF-539
LOX IMVI = test system: LOX IMVI
CCRF-CEM = test system: CCRF-CEM
SF-268 = test system: SF-268
SK-OV-3 = test system: SK-OV-3
HL-60 = test system: HL-60
HCC 2998 = test system: HCC 2998
SNB-19 = test system: SNB-19
MOLT-4 = test system: MOLT-4

O=C(O)c1ccc(Cc2ccccc2C(=O)O)cc1
GI50 (NCI-H226): > 100 µM (inactive) | GI50 (HCT-116): > 100 µM (inactive) | GI50 (EKVX): > 100 µM (inactive) | GI50 (SK-MEL-5): > 100 µM (inactive) | GI50 (RPMI-8226): > 100 µM (inactive) | GI50 (Hs-578T): > 100 µM (inactive) | GI50 (K562): > 100 µM (inactive) | GI50 (SK-MEL-28): > 100 µM (inactive) | GI50 (NCI-H460): > 100 µM (inactive) | GI50 (OVCAR-8): > 100 µM (inactive) | GI50 (NCI-H522): > 100 µM (inactive) | GI50 (SR): > 100 µM (inactive) | GI50 (CAKI-1): > 100 µM (inactive) | GI50 (SK-MEL-2): > 100 µM (inactive) | GI50 (UACC-257): > 100 µM (inactive) | GI50 (SW-620): > 100 µM (inactive) | GI50 (TK-10): > 100 µM (inactive) | GI50 (IGROV-1): > 100 µM (inactive) | GI50 (KM12): > 100 µM (inactive) | GI50 (HT-29): > 100 µM (inactive) | GI50 (NCI-H23): > 100 µM (inactive) | GI50 (M14): > 100 µM (inactive) | GI50 (OVCAR-4): > 100 µM (inactive) | GI50 (PC-3): > 100 µM (inactive) | GI50 (OVCAR-5): > 100 µM (inactive) | GI50 (MDA-MB-231): > 100 µM (inactive) | GI50 (UO-31): > 100 µM (inactive) | GI50 (UACC-62): > 100 µM (inactive) | GI50 (786-0): > 100 µM (inactive) | GI50 (T47D): > 100 µM (inactive) | GI50 (BT-549): > 100 µM (inactive) | GI50 (SNB-75): 49.5 µM (inactive) | GI50 (A498): > 100 µM (inactive) | GI50 (HOP-92): > 100 µM (inactive) | GI50 (A549): > 100 µM (inactive) | GI50 (HCT-15): > 100 µM | GI50 (U-251): > 100 µM (inactive) | GI50 (OVCAR-3): > 100 µM (inactive) | GI50 (MDA-N): > 100 µM (inactive) | GI50 (Malme-3M): > 100 µM (inactive) | GI50 (NCI/ADR-RES): > 100 µM (inactive) | GI50 (SF-295): > 100 µM (inactive) | GI50 (RXF 393): > 100 µM (inactive) | GI50 (ACHN): > 100 µM (inactive) | GI50 (MCF7): > 100 µM (inactive) | GI50 (COLO 205): > 100 µM (inactive) | GI50 (HOP-62): > 100 µM (inactive) | GI50 (MDA-MB-435): > 100 µM (inactive) | GI50 (SN12C): > 100 µM (inactive) | GI50 (SF-539): > 100 µM (inactive) | GI50 (LOX IMVI): > 100 µM (inactive) | GI50 (CCRF-CEM): > 100 µM (inactive) | GI50 (SF-268): > 100 µM (inactive) | GI50 (SK-OV-3): > 100 µM (inactive) | GI50 (HL-60): > 100 µM (inactive) | GI50 (HCC 2998): > 100 µM (inactive) | GI50 (SNB-19): > 100 µM (inactive)

Cn1c(=O)cc(Nc2ccc(N)cc2)[nH]c1=O
GI50 (NCI-H226): > 100 µM (inactive) | GI50 (HCT-116): > 100 µM (inactive) | GI50 (EKVX): > 100 µM (inactive) | GI50 (SK-MEL-5): > 100 µM (inactive) | GI50 (RPMI-8226): > 100 µM (inactive) | GI50 (Hs-578T): > 100 µM (inactive) | GI50 (K562): > 100 µM (inactive) | GI50 (SK-MEL-28): > 100 µM (inactive) | GI50 (NCI-H460): > 100 µM (inactive) | GI50 (OVCAR-8): > 100 µM (inactive) | GI50 (NCI-H522): > 100 µM (inactive) | GI50 (SR): > 100 µM (inactive) | GI50 (CAKI-1): > 100 µM (inactive) | GI50 (SK-MEL-2): > 100 µM (inactive) | GI50 (UACC-257): > 100 µM (inactive) | GI50 (SW-620): > 100 µM (inactive) | GI50 (TK-10): > 100 µM (inactive) | GI50 (IGROV-1): > 100 µM (inactive) | GI50 (KM12): > 100 µM (inactive) | GI50 (HT-29): > 100 µM (inactive) | GI50 (NCI-H23): > 100 µM (inactive) | GI50 (MOLT-4): > 100 µM (inactive) | GI50 (M14): > 100 µM (inactive) | GI50 (OVCAR-4): > 100 µM (inactive) | GI50 (PC-3): > 100 µM (inactive) | GI50 (OVCAR-5): > 100 µM (inactive) | GI50 (MDA-MB-231): > 100 µM (inactive) | GI50 (UO-31): > 100 µM (inactive) | GI50 (UACC-62): > 100 µM (inactive) | GI50 (786-0): > 100 µM (inactive) | GI50 (T47D): > 100 µM (inactive) | GI50 (BT-549): > 100 µM (inactive) | GI50 (SNB-75): > 100 µM (inactive) | GI50 (A498): > 100 µM (inactive) | GI50 (HOP-92): > 100 µM (inactive) | GI50 (A549): > 100 µM (inactive) | GI50 (HCT-15): > 100 µM | GI50 (U-251): > 100 µM (inactive) | GI50 (OVCAR-3): > 100 µM (inactive) | GI50 (MDA-N): > 100 µM (inactive) | GI50 (Malme-3M): > 100 µM (inactive) | GI50 (NCI/ADR-RES): > 100 µM (inactive) | GI50 (SF-295): > 100 µM (inactive) | GI50 (RXF 393): > 100 µM (inactive) | GI50 (ACHN): > 100 µM (inactive) | GI50 (MCF7): 49.4 µM (inactive) | GI50 (COLO 205): > 100 µM (inactive) | GI50 (HOP-62): > 100 µM (inactive) | GI50 (MDA-MB-435): > 100 µM (inactive) | GI50 (SN12C): > 100 µM (inactive) | GI50 (SF-539): > 100 µM (inactive) | GI50 (LOX IMVI): > 100 µM (inactive) | GI50 (CCRF-CEM): > 100 µM (inactive) | GI50 (SF-268): > 100 µM (inactive) | GI50 (SK-OV-3): > 100 µM (inactive) | GI50 (HCC 2998): > 100 µM (inactive) | GI50 (SNB-19): > 100 µM (inactive)
